# According to PubChem BioAssay (NCI):
#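 How tested: cells in 96-well plates exposed to compound for 48 hours at five concentrations. Here, GI50 denotes the concentration required for 50% inhibition of growth. TGI marks complete inhibition of growth.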
# Legend:
# Test in all cases: growth of human tumour cells (NCI), 48 h
# OVCAR-4 ovarian = test system: OVCAR-4 ovarian
# U251 CNS = test system: U251 CNS
# ACHN renal = test system: ACHN renal
# HCC-2998 colon = test system: HCC-2998 colon
# RPMI-8226 leukemia = test system: RPMI-8226 leukemia
# UACC-257 melanoma = test system: UACC-257 melanoma
# SW-620 colon = test system: SW-620 colon
# HCT-15 colon = test system: HCT-15 colon
# HOP-92 NSCLC = test system: HOP-92 NSCLC
# HT29 colon = test system: HT29 colon
# SNB-75 CNS = test system: SNB-75 CNS
# SK-OV-3 ovarian = test system: SK-OV-3 ovarian
# NCI-H23 lung = test system: NCI-H23 lung
# NCI-H522 lung = test system: NCI-H522 lung
# NCI-H460 lung = test system: NCI-H460 lung
# MOLT-4 leukemia = test system: MOLT-4 leukemia
# SK-MEL-28 melanoma = test system: SK-MEL-28 melanoma
# TK-10 renal = test system: TK-10 renal
# MDA-MB-435 = test system: MDA-MB-435
# MDA-MB-231 breast = test system: MDA-MB-231 breast
# SR leukemia = test system: SR leukemia
# SK-MEL-5 melanoma = test system: SK-MEL-5 melanoma
# UO-31 renal = test system: UO-31 renal
# MALME-3M melanoma = test system: MALME-3M melanoma
# K-562 leukemia = test system: K-562 leukemia
# NCI-H226 lung = test system: NCI-H226 lung
# MCF7 breast = test system: MCF7 breast
# PC-3 prostate = test system: PC-3 prostate
# OVCAR-3 ovarian = test system: OVCAR-3 ovarian
smiles,measurement,setting,value
CCCc1cc2c(=O)c(C(=O)OC)c[nH]c2cc1N(CC)CC,GI50,OVCAR-4 ovarian,22.4 µM
same,TGI,OVCAR-4 ovarian,74.5 µM
same,GI50,U251 CNS,18.2 µM
same,TGI,U251 CNS,39.8 µM
same,GI50,ACHN renal,17.6 µM
same,TGI,ACHN renal,60.9 µM
same,GI50,HCC-2998 colon,76.3 µM
same,TGI,HCC-2998 colon,> 100 µM
same,GI50,RPMI-8226 leukemia,63.2 µM
same,TGI,RPMI-8226 leukemia,> 100 µM
same,GI50,UACC-257 melanoma,> 100 µM
same,TGI,UACC-257 melanoma,> 100 µM
same,GI50,SW-620 colon,45.6 µM
same,TGI,SW-620 colon,> 100 µM
same,GI50,HCT-15 colon,76.7 µM
same,TGI,HCT-15 colon,> 100 µM
same,GI50,HOP-92 NSCLC,19.2 µM
same,TGI,HOP-92 NSCLC,52.7 µM
same,GI50,HT29 colon,72.1 µM
same,TGI,HT29 colon,> 100 µM
same,GI50,SNB-75 CNS,18.6 µM
same,TGI,SNB-75 CNS,46.3 µM
same,GI50,SK-OV-3 ovarian,36.5 µM
same,TGI,SK-OV-3 ovarian,> 100 µM
same,GI50,NCI-H23 lung,44.5 µM
same,TGI,NCI-H23 lung,> 100 µM
same,GI50,NCI-H522 lung,38.5 µM
same,TGI,NCI-H522 lung,> 100 µM
same,GI50,NCI-H460 lung,31.6 µM
same,TGI,NCI-H460 lung,> 100 µM
same,GI50,MOLT-4 leukemia,> 100 µM
same,TGI,MOLT-4 leukemia,> 100 µM
same,GI50,SK-MEL-28 melanoma,81.7 µM
same,TGI,SK-MEL-28 melanoma,> 100 µM
same,GI50,TK-10 renal,69.1 µM
same,TGI,TK-10 renal,> 100 µM
same,GI50,MDA-MB-435,47.5 µM
same,TGI,MDA-MB-435,> 100 µM
same,GI50,MDA-MB-231 breast,30.5 µM
same,TGI,MDA-MB-231 breast,84.5 µM
same,GI50,SR leukemia,39.3 µM
same,TGI,SR leukemia,> 100 µM
same,GI50,SK-MEL-5 melanoma,31.9 µM
same,TGI,SK-MEL-5 melanoma,> 100 µM
same,GI50,UO-31 renal,28.5 µM
same,TGI,UO-31 renal,> 100 µM
same,GI50,MALME-3M melanoma,64.8 µM
same,TGI,MALME-3M melanoma,> 100 µM
same,GI50,K-562 leukemia,80.5 µM
same,TGI,K-562 leukemia,> 100 µM
same,GI50,NCI-H226 lung,34.6 µM
same,TGI,NCI-H226 lung,> 100 µM
same,GI50,MCF7 breast,73.6 µM
same,TGI,MCF7 breast,> 100 µM
same,GI50,PC-3 prostate,23.3 µM
same,TGI,PC-3 prostate,> 100 µM
same,GI50,OVCAR-3 ovarian,16.4 µM
same,TGI,OVCAR-3 ovarian,38.3 µM
